Legend:
[1] = system: bovine adrenal 3β-hydroxy-Δ^5 -steroid dehydrogenase/3-keto-Δ^5 -steroid isomerase (3BHSD); settings: cited from earlier work
[2] = system: porcine granulosa cell 3β-hydroxy-Δ^5 -steroid dehydrogenase/3-keto-Δ^5 -steroid isomerase (3BHSD); settings: cited from earlier work
[3] = target: T1, Human Adrenal 3BHSD (Homo sapiens, UniProt P26439); experiment: Inhibition of human adrenal 3β-hydroxy-Δ^5-steroid dehydrogenase/3-keto-Δ^5-steroid isomerase (3BHSD) (microsomes; DHEA to androstenedione conversion); assay type: biochemical; settings: 1 mM NAD+, pH 7.5, 1 to 60 minutes
T1 construct: microsomes derived from human adrenal tissues; from tissue; host or cells: human adrenal tissue, microsomes
T1 sequence (P26439 1-372): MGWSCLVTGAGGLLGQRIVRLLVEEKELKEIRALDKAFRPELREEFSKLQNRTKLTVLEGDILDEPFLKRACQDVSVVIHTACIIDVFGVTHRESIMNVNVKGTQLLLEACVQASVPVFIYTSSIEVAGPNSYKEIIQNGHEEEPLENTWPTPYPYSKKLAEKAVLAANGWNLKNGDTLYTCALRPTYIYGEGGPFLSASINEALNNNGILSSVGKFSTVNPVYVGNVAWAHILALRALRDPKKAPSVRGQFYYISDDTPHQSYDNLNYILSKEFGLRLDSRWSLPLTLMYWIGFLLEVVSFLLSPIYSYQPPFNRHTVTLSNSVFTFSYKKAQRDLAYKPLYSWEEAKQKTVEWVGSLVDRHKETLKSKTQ
Method: Enzyme activities are measured using microsomes derived from human adrenal tissues. Microsomes were prepared by homogenization of the tissue followed by differential centrifugation of the homogenate. Microsome extracts were incubated with varying concentrations of dehydroepiandrosterone (DHEA), 1 mM NAD+, and varying amounts of the compounds of Formula (I), i.e. a test compound, in pH 7.5 buffer for a period of time within the range of 1 to 60 minutes. Corresponding incubations were carried out with no test compound as a control study. The percentage of conversion of DHEA to androstenedione in the presence of test compounds compared to the corresponding conversion in the control study was estimated using HPLC with radiochemical detection.

[4] = target: T2, human type 1 5α-reductase (Homo sapiens, UniProt P18405); experiment: Inhibition of human type 1 steroid 5α-reductase (microsomes; testosterone to DHT conversion); assay type: biochemical; settings: 10 min preincubation, pH 7.0, 100 nM testosterone, 10-120 min, 1 mM NADPH; read-out: IC50 Human Type 1 5AR
T2 construct: made in house; host or cells: Sf9 insect cells, recombinant baculovirus; microsomes
T2 sequence (P18405 1-259): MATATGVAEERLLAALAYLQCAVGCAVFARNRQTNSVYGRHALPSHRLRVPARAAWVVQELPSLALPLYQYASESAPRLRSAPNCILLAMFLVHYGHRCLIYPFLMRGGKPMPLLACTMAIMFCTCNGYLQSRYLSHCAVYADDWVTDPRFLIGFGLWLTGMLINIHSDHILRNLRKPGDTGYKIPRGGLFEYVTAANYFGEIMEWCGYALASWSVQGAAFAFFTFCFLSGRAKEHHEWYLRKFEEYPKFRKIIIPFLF
Method: (§1) Enzyme activities may be determined using microsomes derived from: 1) prostate tissue from benign prostatic hyperplasia (BPH) patients; 2) recombinant baculovirus infected SF9 cells that express human type 1 5α-reductase; or 3) recombinant baculovirus infected SF9 cells that express human type 2 5α-reductase. Microsomes were prepared by homogenization of the tissue or cells, followed by differential centrifugation of the homogenate. Microsome extracts were incubated with varying concentrations of [1,2,6,7-^3 H]-testosterone, 1 mM NADPH, and varying amounts of the compounds of formula (I,) i.e. a test compound, in buffer containing a NADPH regenerating system capable of maintaining NADPH concentrations for a period of time within the range 0.5-240 minutes. Corresponding incubations were carried out with no test compound as a control study.
(§2) For type 1 IC50 measurements, assay components except testosterone were preincubated for 10 minutes at pH 7.0, and following the addition of 100 nM testosterone the assays were allowed to proceed for 10-120 minutes. For type 2 IC50 measurements, assay components except testosterone were preincubated for 20 minutes at pH 6.0, and following the addition of 8 nM testosterone the assays were allowed to proceed for 20-40 minutes. The percentage of conversion of testosterone to DHT in the presence of test compounds compared to the corresponding conversion in the control study was estimated using high performance liquid chromatography (HPLC) with radiochemical detection.

[5] = target: T3, human type 2 5α-reductase (Homo sapiens, UniProt P31213); experiment: Inhibition of human type 2 steroid 5α-reductase (microsomes; testosterone to DHT conversion); assay type: biochemical; settings: 20 min preincubation, pH 6.0, 8 nM testosterone, 20-40 min, 1 mM NADPH; read-out: IC50 Human Type 2 5AR
T3 construct: made in house; host or cells: Sf9 insect cells, recombinant baculovirus; microsomes
T3 sequence (P31213 1-254): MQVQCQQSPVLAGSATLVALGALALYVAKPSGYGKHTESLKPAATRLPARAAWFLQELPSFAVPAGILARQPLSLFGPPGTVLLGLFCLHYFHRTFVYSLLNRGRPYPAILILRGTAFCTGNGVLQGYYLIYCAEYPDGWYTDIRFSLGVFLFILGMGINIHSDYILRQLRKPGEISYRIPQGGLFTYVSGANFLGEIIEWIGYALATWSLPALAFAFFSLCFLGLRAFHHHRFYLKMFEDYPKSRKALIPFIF
Method: as §1, §2

| SMILES | inhibition of bovine adrenal 3BHSD [1] | inhibition of porcine granulosa cell 3BHSD [2] | Ki [3] [µM] | IC50 [4] [µM] | IC50 [5] [µM] |
| --- | --- | --- | --- | --- | --- |
| CCN(CC)C(=O)[C@H]1CC[C@H]2[C@@H]3CC[C@H]4N(C)C(=O)CC[C@]4(C)[C@H]3CC[C@]12C [Compound 4-MA] | potent inhibition | potent inhibition | – | – | – |
| CCC1(CC)CC1(NC(=O)[C@H]1CC[C@H]2[C@@H]3CC[C@H]4NC(=O)C=C[C@]4(C)[C@H]3CC[C@]12C)c1ccc(-c2ccccc2)cc1 (stereo partly drawn) [Compound 21, 17β-N-1-(4-Biphenyl)-2,2-diethylcyclopropylcarbamoyl-4-aza-5α-androst-1-en-3-one] | – | – | > 1 | < 0.001 | < 0.001 |
| C[C@]12CCC(=O)N[C@@H]1CC[C@@H]1[C@@H]2CC[C@]2(C)[C@@H](C(=O)Nc3cc(C(F)(F)F)ccc3C(F)(F)F)CC[C@@H]12 [Compound 22, 17β-N-(2,5-bis(Trifluoromethyl))phenylcarbamoyl-4-aza-5α-androstan-3-one] | – | – | > 1 | 0.001 to 0.01 | < 0.001 |
| CN1C(=O)CC[C@]2(C)[C@H]3CC[C@]4(C)[C@@H](C(=O)Nc5cc(C(F)(F)F)ccc5C(F)(F)F)CC[C@H]4[C@@H]3CC[C@@H]12 [Compound 23, 17β-N-(2,5-bis(Trifluoromethyl))phenylcarbamoyl-4-methyl-4-aza-5α-androstan-3-one] | – | – | 0.01 to 10 | < 0.001 | < 0.001 |
| CC(C)(C)c1ccc(C(F)(F)F)cc1NC(=O)[C@H]1CC[C@H]2[C@@H]3CC[C@H]4NC(=O)C=C[C@]4(C)[C@H]3CC[C@]12C [Compound 24, 17β-N-(2-t-Butyl-5-trifluoromethyl)phenylcarbamoyl-4-aza-5α-androst-1-en-3-one] | – | – | > 1 | 0.001 to 0.01 | < 0.001 |
| CC(C)(C)c1ccc(C(F)(F)F)cc1NC(=O)[C@H]1CC[C@H]2[C@@H]3CC[C@H]4NC(=O)CC[C@]4(C)[C@H]3CC[C@]12C [Compound 25, 17β-N-(2-t-Butyl-5-trifluoromethyl)phenylcarbamoyl-4-aza-5α-androstan-3-one] | – | – | > 1 | 0.001 to 0.01 | < 0.001 |
| CN1C(=O)CC[C@]2(C)[C@H]3CC[C@]4(C)[C@@H](C(=O)Nc5cc(C(F)(F)F)ccc5C(C)(C)C)CC[C@H]4[C@@H]3CC[C@@H]12 [Compound 26, 17β-N-(2-t-Butyl-5-trifluoromethyl)phenylcarbamoyl-4-methyl-4-aza-5α-androstan-3-one] | – | – | 0.01 to 10 | < 0.001 | < 0.001 |
| CC(C)(C)c1ccc(C(C)(C)C)c(NC(=O)[C@H]2CC[C@H]3[C@@H]4CC[C@H]5NC(=O)C=C[C@]5(C)[C@H]4CC[C@]23C)c1 [Compound 27, 17β-N-(2,5-Di-t-butyl)phenylcarbamoyl-4-aza-5α-androst-1-en-3-one] | – | – | 0.01 to 10 | 0.001 to 0.01 | < 0.001 |
| CC(C)(C)c1ccc(C(C)(C)C)c(NC(=O)[C@H]2CC[C@H]3[C@@H]4CC[C@H]5NC(=O)CC[C@]5(C)[C@H]4CC[C@]23C)c1 [Compound 28, 17β-N-(2,5-Di-t-butyl)phenylcarbamoyl-4-aza-5α-androstan-3-one] | – | – | > 1 | 0.001 to 0.01 | < 0.001 |
| CN1C(=O)CC[C@]2(C)[C@H]3CC[C@]4(C)[C@@H](C(=O)Nc5cc(C(C)(C)C)ccc5C(C)(C)C)CC[C@H]4[C@@H]3CC[C@@H]12 [Compound 29, 17β-N-(2,5-Di-t-butyl)phenylcarbamoyl-4-methyl-4-aza-5α-androstan-3-one] | – | – | 0.01 to 10 | < 0.001 | < 0.001 |
| C[C@H]1C[C@H]2NC(=O)C=C[C@]2(C)[C@H]2CC[C@]3(C)[C@@H](C(=O)Nc4cc(C(F)(F)F)ccc4C(F)(F)F)CC[C@H]3[C@H]12 [Compound 30, 17β-N-(2,5-bis(Trifluoromethyl))phenylcarbamoyl-4-aza-7β-methyl-5α-androst-1-en-3-one] | – | – | > 1 | 0.001 to 0.01 | 0.001 to 0.01 |
| C[C@H]1C[C@H]2NC(=O)C=C[C@]2(C)[C@H]2CC[C@]3(C)[C@@H](C(=O)Nc4cc(C(F)(F)F)ccc4C(C)(C)C)CC[C@H]3[C@H]12 [Compound 31, 17β-N-(2-t-Butyl-5-trifluoromethyl)phenylcarbamoyl-4-aza-7β-methyl-5α-androst-1-en-3-one] | – | – | > 1 | 0.001 to 0.01 | 0.001 to 0.01 |
| C[C@H]1C[C@H]2NC(=O)C=C[C@]2(C)[C@H]2CC[C@]3(C)[C@@H](C(=O)NC4(c5ccc(Cl)cc5)CCCC4)CC[C@H]3[C@H]12 [Compound 32, 17β-N-1-(4-Chlorophenyl)cyclopentylcarbamoyl-4-aza-7β-methyl-5α-androst-1-en-3-one] | – | – | > 1 | 0.001 to 0.01 | < 0.001 |
| CC(C)(C)c1ccc(C2(NC(=O)[C@H]3CC[C@H]4[C@@H]5CC[C@H]6NC(=O)C=C[C@]6(C)[C@H]5CC[C@]34C)C3CCCC2CCC3)cc1 (stereo partly drawn) [Compound 33, 17β-N-9-(4-t-Butylphenyl)bicyclo[3.3.1]nonylcarbamoyl-4-aza-5α-androst-1-en-3-one] | – | – | > 1 | 0.001 to 0.01 | < 0.001 |

Reference: patent US5817818A, “Androstenones” (Glaxo Wellcome Inc., priority 1996, dated 1998)
